In ChEMBL document CHEMBL1132692, “Paclitaxel derivatives for targeted therapy of cancer: toward the development of smart taxanes” (J Med Chem, 1999):

Legend:
[1] = molecular target: Gastrin-releasing peptide receptor (Mus musculus) (UniProt P21729); assay: Inhibition of [125I]Tyr3-BBN binding to BNR-11 cell line (Bombesin/gastrin-releasing peptide receptor); format: cell-based; conditions: concentration not given here
[2] = molecular target: T1, Bombesin receptor subtype-3 (Homo sapiens) (UniProt P32247); assay: Inhibition of [125I]Tyr3-BBN binding to NCI-H1299 cell line; format: cell-based; conditions: concentration not given here
T1 sequence (whole entry): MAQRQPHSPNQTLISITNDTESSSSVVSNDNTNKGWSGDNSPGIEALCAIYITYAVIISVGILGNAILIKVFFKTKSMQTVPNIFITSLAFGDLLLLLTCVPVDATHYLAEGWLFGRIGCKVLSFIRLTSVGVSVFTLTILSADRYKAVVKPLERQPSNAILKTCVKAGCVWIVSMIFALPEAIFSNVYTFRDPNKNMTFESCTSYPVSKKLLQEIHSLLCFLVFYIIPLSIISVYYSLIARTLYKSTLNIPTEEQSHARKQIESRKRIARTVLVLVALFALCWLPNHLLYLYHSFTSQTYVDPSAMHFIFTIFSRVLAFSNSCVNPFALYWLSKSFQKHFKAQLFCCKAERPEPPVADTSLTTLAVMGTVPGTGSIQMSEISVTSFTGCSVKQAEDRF

NCI-H1299 [3] = assay: Inhibitory concentration against NCI-H1299 Human Nonsmall cell lung cancer cells after 24 hr exposure to the compound.; format: functional, cell-based; conditions: NCI-H1299, 24 h
NCI-H1299 [4] = assay: Inhibitory concentration against NCI-H1299 Human Nonsmall cell lung cancer cells after 96h exposure to the compound.; format: functional, cell-based; conditions: NCI-H1299, 96 h

Chain of Gastrin-releasing peptide receptor (Mus musculus) (P21729 whole entry): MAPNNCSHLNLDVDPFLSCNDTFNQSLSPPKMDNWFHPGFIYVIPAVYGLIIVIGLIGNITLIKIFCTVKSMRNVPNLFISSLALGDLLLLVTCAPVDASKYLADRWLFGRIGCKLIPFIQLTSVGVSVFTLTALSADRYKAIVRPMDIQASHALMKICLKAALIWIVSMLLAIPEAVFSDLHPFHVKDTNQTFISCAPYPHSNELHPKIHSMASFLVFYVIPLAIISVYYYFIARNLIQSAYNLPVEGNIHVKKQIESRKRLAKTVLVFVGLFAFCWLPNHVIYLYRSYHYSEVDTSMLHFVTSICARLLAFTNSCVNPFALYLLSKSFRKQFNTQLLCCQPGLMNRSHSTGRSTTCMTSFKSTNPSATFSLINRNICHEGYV

| inhibition [1] | inhibition [2] | IC50 (NCI-H1299 [3]) | IC50 (NCI-H1299 [4]) | Compound |
| --- | --- | --- | --- | --- |
| 14% | 3.6% |  |  | CC(C)C[C@H](NC(=O)[C@H](Cc1c[nH]cn1)NC(=O)CNC(=O)[C@@H](NC(=O)[C@H](C)NC(=O)[C@H](Cc1c[nH]c2ccccc12)NC(=O)[C@@H](N)CCC(N)=O)C(C)C)C(N)=O |
|  |  | 35 nM | 15 nM | CC(=O)O[C@H]1C(=O)[C@@]2(C)[C@H]([C@H](OC(=O)c3ccccc3)[C@]3(O)C[C@H](OC(=O)[C@H](O)[C@@H](NC(=O)c4ccccc4)c4ccccc4)C(C)=C1C3(C)C)[C@]1(OC(C)=O)CO[C@@H]1C[C@@H]2O [PACLITAXEL] |
